From patent US20040097433A1, “Chroman derivatives for the reduction of inflammation symptoms” (priority 2002, published 2004) come the findings set out here.

One experiment relates to CD-1 mice. The experiment is described as follows: Arachidonic acid ear inflammation model. The following applies: topical to left ear, 20 μL in 70% ethanol/30% propylene glycol; ear punch weight difference one hour after treatment. It counts as in vivo, mouse. The protocol: This assay measures the ability of test compounds to prevent or reduce inflammation secondary to oxazolone or arachidonic acid.
A. Arachidonic acid. Albino male CD-1 mice, 7-9 weeks old were used in this test. A 20% (w/v) arachidonic acid solution in acetone was prepared. Twenty microliters of the arachidonic acid solution was applied to the dorsal left ear of the mouse. Immediately thereafter, test compounds (20 μL in 70% ethanol/30% propylene glycol) were applied to the left ear. The untreated right ears served as control. Mice are sacrificed by CO2 inhalation, one hour after treatment. The left and right ears were removed and 7 mm punch biopsies taken from each. The punch biopsies were weighed, and the differences calculated.

A further experiment has as its system ELAM (E-selectin). The experiment is described as follows: Cell-ELAM (E-selectin) assay. The following applies: Endothelial cell, 6 h, endothelial cells stimulated with LPS and IL-1β for 6 hours; E-selectin antibody ELISA; read-out: EC50 for reducing the expression of ELAM. Type of experiment: cell-based. From the text: Another useful cell screening assay, exemplified herein in Example 1B, is the E-selectin (ELAM) production assay, which measures activity of test compounds in reducing expression of ELAM in activated endothelial cells. Briefly, endothelial cells are activated by adding known activators such as lipopolysaccharide, TNF-α, or IL-1β, alone or in some combination. Activated cells produce ELAM, which can be measured using, for example, an E-selectin monoclonal antibody-based ELISA assay. In studies carried out in support of the present invention, ELAM production was decreased. As described herein, chroman derivatives were able to reduce ELAM production in an assay such as the one described in Example 1B.
B. Cell-ELAM Assay. Endothelial-Leukocyte Adhesion Molecule (ELAM), also known as E-selectin, is expressed on the surface of endothelial cells. In this assay, lipopolysaccharide (LPS) and IL-1β are used to stimulate the expression of ELAM; test agents are tested for their abilities to reduce this expression, in accordance with studies showing that reduction of leukocyte adhesion to endothelial cell surface is associated with decreased cellular damage (e.g., Takada, M., Et al., Transplantation 64: 1520-25, 1997; Steinberg, J. B., et al., J. Heart Lung Trans. 13:306-313, 1994).
Endothelial cells may be selected from any of a number of sources and cultured according to methods known in the art; including, for example, coronary artery endothelial cells, human brain microvascular endothelial cells (HBMEC; Hess, D. C., et al., Neurosci. Lett. 213(1): 37-40,1996), or lung endothelial cells. Cells are conveniently cultured in 96-well plates. […] Wells are allowed to develop for 35 minutes, before measurement at 402 nm in a Fluoroskan® Reader with shake program for 10 seconds. Positive results are recorded as a decrease in ELAM concentration in tested wells, as compared to control wells.

The subject of the next experiment is CRP. The experiment is described as follows: Human Hep3B cells CRP assay. It counts as cell-based. The following applies: for reduction of CRP levels (in words): CRP assay of Example 1A; for EC50: Homo sapiens, 72 h, Hep3B cells stimulated with IL-1β, IL-6 and dexamethasone, three days, CRP ELISA on supernatant, normalized to cell count, read-out: EC50 for reducing CRP levels. The procedure: In studies carried out in support of the present invention, a combination of Interleukin-1β, IL-6, and dexamethasone is used to induce CRP production, and counter-agents are tested for their ability to reduce this production in cultured liver cells, as detailed in Example 1A. The assay is performed on cells grown in 96-well format allowing high throughput screening of compounds. As described herein, chroman derivatives were able to reduce CRP levels in an assay such as the one described in Example 1A.
A. Human Hep3B Cells—CRP assay. Hep3B Cell Line is obtained from the American Type Culture Collection (ATCC Catalog No. HB-8064). The Hep3B cell line was derived from liver tissue of […]. The cells are epithelial in morphology and produce tumors in nude mice. The cells produce α-fetoprotein, hepatitis B surface antigen, albumin, α-2-macroglobulin, α-1-antitrypsin, transferrin, plasminogen, complement C3 and β-lipoprotein (Knowles B B, et al., Science, 1980, 209:497499). This cell line has been widely used to study hepatocyte cytokine and acute phase protein release (e.g., Damtew B, et al., 1993, J. Immunol. 150:4001-4007).
HEP3B cells are grown in Minimum Essential Medium (MEM; GIBCO) supplemented with 10% Fetal Bovine Serum (FBS; Hyclone), 1× Penicillin/Streptomycin (GIBCO, Cat#. 15140-122) and 0.1 mM non-essential amino acids (GIBCO, Catalog No. 11140-050). Cells are thawed and transferred to warm medium according to standard methods known in the art.
Cells are incubated in flasks at 37° C. with 5% CO2 in an air atmosphere incubator. HEP3B growth media is changed every 2 days until the cells reach 70-80% confluence (approx. 3-4 days). For assay, the cells are transferred to 96-well plates, seeded at 5000 cells per well in culture media, and left to grow for 7 days in a 37° C. incubator (air supplemented with 5% CO2). Media is replaced daily until assay. […]
100 μl HRP-conjugated rabbit anti-human CRP (DAKO) diluted 1:500 (in CRP wash buffer) is added to each well, followed by incubation for 30 minutes at 37° C. […] Finally, 50 μl of 1M H2SO4 is added to each well and absorbance at 450 nm is immediately measured in a microtiter spectrophotometer.
CRP measured as above is normalized to cell count per well, using a cell viability assay, such as the Cell Tracker Green assay. […] Plates are immediately read using a Fluoroskan® flourometer with a 485 excitation/538 emission filter pair.

On to `COC(=O)CCC1(C)CCc2c(Br)c(O)c(C)c(C)c2O1` (stereo not drawn) [3-(5-Bromo-6-hydroxy-2,7,8-trimethyl-chroman-2-yl)-propionic acid methyl ester], for which the “protection in arachidonic acid ear inflammation assay” value in the experiment on CD-1 mice is recorded as “about 40%”. Besides, in the experiment with ELAM (E-selectin), the EC50 lay within 10 to 100 µM.

Take `Cc1c(O)cc2c(c1C)OC(C)(CCC(=O)O)CC2` (stereo not drawn) [3-(6-hydroxy-2,7,8-trimethyl-chroman-2-yl)-propionic acid]: in the experiment on CRP, the “reduction of CRP levels (in words)” value is reported as “effective at reducing CRP levels” and the EC50 lay within 40 to 60 µM.

`COC(=O)CCC1(C)CCc2cc(O)c(C)c(C)c2O1` (stereo not drawn) [3-(6-hydroxy-2,7,8-trimethyl-chroman-2-yl)propionic acid methyl ester]: in the experiment with CRP, the “reduction of CRP levels (in words)” value is “effective at reducing CRP levels” and the EC50 is 10 to 30 µM.

For `CC1(CCC(=O)O)CCc2ccc(O)c(O)c2O1` (stereo not drawn) [3-(7,8-Dihydroxy-2-methyl-chroman-2-yl)-propionic acid], the “protection in arachidonic acid ear inflammation assay” value with CD-1 mice was “about 40%”. Besides, the EC50 in the experiment on ELAM (E-selectin) lay in the range of 10 to 100 µM.

In the case of `Cc1c(C)c2c(c(C)c1O)CCC(C)(C(=O)NCC1C3CC4CC(C3)CC1C4)O2` (stereo not drawn) [6-Hydroxy-2,5,7,8-tetramethyl-chroman-2-carboxylic acid (adamantan-2-ylmethyl)-amide], in the experiment on ELAM (E-selectin), the EC50 was in the range of 10 to 100 µM.
